The results in this text go back to patent publication US12091426B2, “Bifunctional degraders of hematopoietic progenitor kinase and therapeutic uses thereof” (Nurix Therapeutics, Inc., priority 2021, dated 2024).

The experiment has as its target T1, HPK1 (Homo sapiens, UniProt Q92918).
T1 construct: A HiBiT tag was introduced by CRISPR on the N terminus of HPK1 in Jurkat cells; host or cells: Jurkat cells (ATCC TIB-152), monoclonal line with CRISPR knock-in of HiBiT at the endogenous HPK1 locus
In words: HPK1 Cellular HiBit Degradation Assay. It is filed as cell-based. The note with it: HiBiT HPK1 Jurkat cells, 24 hrs; for DC50: concentration at which 50% of HPK1 was remaining, read-out: DC50 Category; for Dmax: Jurkat, read-out: Dmax Category. A digest of the protocol: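 HPK1 levels are read by HiBiT luminescence after 24 h exposure of HiBiT-knock-in Jurkat cells to compound at 10 uM–0.1 nM final (11 points). Relative to DMSO (100%), DC50 is the concentration leaving 50% HPK1 from a variable-slope fit, and Dmax is 100 minus minimum remaining. Viability checked in-plate.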

[1] abbreviates: maximum degradation vs DMSO vehicle control.

T1 sequence (Q92918 whole entry): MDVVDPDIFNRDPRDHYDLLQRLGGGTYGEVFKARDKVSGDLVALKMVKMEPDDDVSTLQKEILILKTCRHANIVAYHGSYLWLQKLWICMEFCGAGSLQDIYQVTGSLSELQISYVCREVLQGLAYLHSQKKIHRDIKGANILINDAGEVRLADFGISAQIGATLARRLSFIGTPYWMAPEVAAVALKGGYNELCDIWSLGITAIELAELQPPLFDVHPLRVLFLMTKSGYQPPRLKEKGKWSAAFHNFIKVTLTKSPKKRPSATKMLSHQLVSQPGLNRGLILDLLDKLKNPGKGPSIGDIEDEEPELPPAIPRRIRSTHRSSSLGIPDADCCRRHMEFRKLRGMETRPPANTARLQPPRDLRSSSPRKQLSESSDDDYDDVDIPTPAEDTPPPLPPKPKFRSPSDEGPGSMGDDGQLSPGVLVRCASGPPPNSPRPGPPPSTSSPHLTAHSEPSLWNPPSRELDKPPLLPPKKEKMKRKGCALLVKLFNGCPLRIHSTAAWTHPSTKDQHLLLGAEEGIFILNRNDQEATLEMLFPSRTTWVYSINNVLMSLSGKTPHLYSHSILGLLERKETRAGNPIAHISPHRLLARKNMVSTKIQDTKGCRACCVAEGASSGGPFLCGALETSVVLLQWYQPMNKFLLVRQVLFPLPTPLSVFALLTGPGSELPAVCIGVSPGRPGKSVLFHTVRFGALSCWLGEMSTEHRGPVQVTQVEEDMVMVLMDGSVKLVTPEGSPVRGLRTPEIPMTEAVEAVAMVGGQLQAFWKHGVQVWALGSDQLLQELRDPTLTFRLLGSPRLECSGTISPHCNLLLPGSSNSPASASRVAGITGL

Turning to `CC(C)n1cnc2cc(-c3ccc4c(c3)N([C@H]3C[C@@H](N5CCCCC5)C3)C(=O)C43CCN(C(=O)C4CN(C(=O)C5CCN(c6ccc(C7CCC(=O)NC7=O)cn6)CC5)CCC4(F)F)CC3)nc(NC3CC3)c21` (mixture of isomers) [Example 285, (3RS)-3-(6-{4-[3-({6-[4-(cyclopropylamino)-3-(propan-2-yl)-3H-imidazo[4,5-c]pyridin-6-yl]-2-oxo-1-[(1S,3S)-3-(piperidin-1-yl)cyclobutyl]-1,2-dihydrospiro[indole-3,4′-piperidin]-1′-yl}carbonyl)-4,4-Difluoropiperidine-1-carbonyl]piperidin-1-yl}pyridin-3-yl)piperidine-2,6-dione], the DC50 lay in the range of 100 to 500 nM. The maximal degradation (Dmax) under setting [1] lay in the range of 50 to 70%.
With `CC(C)n1cnc2cc(-c3ccc4c(c3)N([C@H]3C[C@@H](N5CCCCC5)C3)C(=O)C43CCN(C(=O)C4(C(F)F)CCN(C(=O)C5CCN(c6ccc(C7CCC(=O)NC7=O)cn6)CC5)CC4)CC3)nc(NC3CC3)c21` (mixture of isomers) [Example 276, (3RS)-3-(6-{4-[4-({6-[4-(cyclopropylamino)-3-(propan-2-yl)-3H-imidazo[4,5-c]pyridin-6-yl]-2-oxo-1-[(1S,3S)-3-(piperidin-1-yl)cyclobutyl]-1,2-dihydrospiro[indole-3,4′-piperidin]-1′-yl}carbonyl)-4-(difluoromethyl)piperidine-1-carbonyl]piperidin-1-yl}pyridin-3-yl)piperidine-2,6-dione], the DC50 is less than 100 nM. For the same compound, under setting [1], the Dmax was greater than 85%.
Regarding `CC(C)n1cnc2cc(-c3ccc4c(c3)N([C@H]3C[C@@H](N5CCCCC5)C3)C(=O)C43CCN(C(=O)[C@H]4CCCN(C(=O)CC5CCN(c6ccc(C7CCC(=O)NC7=O)cn6)CC5)C4)CC3)nc(NC3CC3)c21` (mixture of isomers) [Example 231, (3RS)-3-[6-(4-{2-[(3S)-3-({6-[4-(cyclopropylamino)-3-(propan-2-yl)-3H-imidazo[4,5-c]pyridin-6-yl]-2-oxo-1-[(1S,3S)-3-(piperidin-1-yl)cyclobutyl]-1,2-dihydrospiro[indole-3,4′-piperidin]-1′-yl}carbonyl)piperidin-1-yl]-2-oxoethyl}piperidin-1-yl)pyridin-3-yl]piperidine-2,6-dione], the half-maximal degradation concentration (DC50) is 100 to 500 nM. Moreover, the Dmax under setting [1] is 50 to 70%.
As to `CC(C)n1cnc2cc(-c3ccc4c(c3)N([C@H]3C[C@@H](N5CCC[C@H](F)C5)C3)C(=O)C43CCN(C(=O)C4(C)CCN(C(=O)C5CCN(c6ccc(C7CCC(=O)NC7=O)cc6)CC5)CC4)CC3)nc(NC3CC3)c21` (mixture of isomers) [Example 198, (3RS)-3-(4-{4-[4-({6-[4-(cyclopropylamino)-3-(propan-2-yl)-3H-imidazo[4,5-c]pyridin-6-yl]-2-oxo-1-[(1S,3S)-3-[(3S)-3-fluoropiperidin-1-yl]cyclobutyl]-1,2-dihydrospiro[indole-3,4′-piperidin]-1′-yl}carbonyl)-4-methylpiperidine-1-carbonyl]piperidin-1-yl}phenyl)piperidine-2,6-dione], the 50% degradation concentration (DC50) is 100 to 500 nM. For the same compound, under setting [1], the Dmax was in the range of 70 to 85%.
For `CC(C)n1cnc2cc(-c3ccc4c(c3)N([C@H]3C[C@@H](N5CCCCC5)C3)C(=O)C43CCN(C(=O)[C@H]4[C@@H]5CN(C(=O)C6CCN(c7ccc(C8CCC(=O)NC8=O)cn7)CC6)C[C@@H]54)CC3)nc(NC3CC3)c21` (mixture of isomers) [Example 260, (3RS)-3-(6-{4-[(1R,5S,6S)-6-({6-[4-(cyclopropylamino)-3-(propan-2-yl)-3H-imidazo[4,5-c]pyridin-6-yl]-2-oxo-1-[(1S,3S)-3-(piperidin-1-yl)cyclobutyl]-1,2-dihydrospiro[indole-3,4′-piperidin]-1′-yl}carbonyl)-3-azabicyclo[3.1.0]hexane-3-carbonyl]piperidin-1-yl}pyridin-3-yl)piperidine-2,6-dione], the DC50 is less than 100 nM. Also, the greatest degradation seen (Dmax) under setting [1] fell in the range of 70 to 85%.
`CC(C)n1cnc2cc(-c3ccc4c(c3)N([C@H]3C[C@@H](N5CCCCC5)C3)C(=O)C43CCN(C(=O)[C@@H]4CCN(C(=O)[C@H]5CC[C@H](Oc6ccc(C7CCC(=O)NC7=O)cc6)CC5)C4)CC3)nc(Nc3ccccc3F)c21` (stereo partly drawn) [Example 14, 3-(4-{[(1R,4R)-4-[(3R)-3-[(6-{4-[(2-fluorophenyl)amino]-3-(propan-2-yl)-3H-imidazo[4,5-c]pyridin-6-yl}-2-oxo-1-[(1S,3S)-3-(piperidin-1-yl)cyclobutyl]-1,2-dihydrospiro[indole-3,4′-piperidin]-1′-yl)carbonyl]pyrrolidine-1-carbonyl]cyclohexyl]oxy}phenyl)piperidine-2,6-dione]: the DC50 is less than 100 nM. Further, under setting [1], the Dmax is greater than 85%.
Consider `CC(C)n1cnc2cc(-c3ccc4c(c3)N([C@H]3C[C@@H](N5CCCCC5)C3)C(=O)C43CCN(C(=O)[C@@H]4CCN(C(=O)[C@H]5CC[C@H](Oc6ccc(C7CCC(=O)NC7=O)cn6)CC5)C4)CC3)nc(NC3CCOCC3)c21` (mixture of isomers) [Example 19, (3RS)-3-(6-{[(1R,4R)-4-[(3R)-3-[(6-{4-[(oxan-4-yl)amino]-3-(propan-2-yl)-3H-imidazo[4,5-c]pyridin-6-yl}-2-oxo-1-[(1S,3S)-3-(piperidin-1-yl)cyclobutyl]-1,2-dihydrospiro[indole-3,4′-piperidin]-1′-yl)carbonyl]pyrrolidine-1-carbonyl]cyclohexyl]oxy}pyridin-3-yl)piperidine-2,6-dione], for which the half-maximal degradation concentration (DC50) was less than 100 nM. Also, the Dmax under setting [1] fell in the range of 70 to 85%.
With `Cc1cc(N2CCC(C(=O)N3CCC(C)(C(=O)N4CCC5(CC4)C(=O)N([C@H]4C[C@@H](N6CCCCC6)C4)c4cc(-c6cc7ncn(C(C)C)c7c(NC7CC7)n6)ccc45)CC3)CC2)ncc1C1CCC(=O)NC1=O` (mixture of isomers) [Example 189, (3RS)-3-(6-{4-[4-({6-[4-(cyclopropylamino)-3-isopropylimidazo[4,5-c]pyridin-6-yl]-2-oxo-1-[(1S,3S)-3-(piperidin-1-yl)cyclobutyl]spiro[indole-3,4′-piperidin]-1′-yl}carbonyl)-4-methylpiperidine-1-carbonyl]piperidin-1-yl}-4-Methylpyridin-3-yl)piperidine-2,6-dione], the DC50 was less than 100 nM. Moreover, under setting [1], the Dmax lay in the range of 70 to 85%.
For `CC(C)n1cnc2cc(-c3ccc4c(c3)N(C3CC(N5CCCCC5)C3)C(=O)C43CCN(C(=O)C4(C)CCN(C(=O)C5(C)CCN(c6ccc(C7CCC(=O)NC7=O)cn6)CC5)CC4)CC3)nc(NC3CC3)c21` (racemic) [Example 151, (3RS)-3-(6-{4-[4-({6-[4-(cyclopropylamino)-3-isopropylimidazo[4,5-c]pyridin-6-yl]-2-oxo-1-[(1S,3S)-3-(piperidin-1-yl)cyclobutyl]spiro[indole-3,4′-piperidin]-1′-yl}carbonyl)-4-methylpiperidine-1-carbonyl]-4-methylpiperidin-1-yl}pyridin-3-yl)piperidine-2,6-dione], the DC50 was less than 100 nM. For the same compound, the “Dmax Category” value under setting [1] is reported as “B (B: >70%-<85%)”.
As for `CC(C)n1cnc2cc(-c3ccc4c(c3)N([C@H]3C[C@@H](N5CCCCC5)C3)C(=O)C43CCN(C(=O)C4(C)CCN(C(=O)[C@H]5CC[C@H](Oc6ccc(C7CCC(=O)NC7=O)cn6)CC5)CC4)CC3)nc(Nc3ccncc3F)c21` (mixture of isomers) [Example 106], the DC50 was less than 100 nM. The greatest degradation seen (Dmax) under setting [1] was 70 to 85%.
